For test [1], the system named is RKO colon adenocarcinoma cells (RKOp27) arrested by expression of ectopic p27Kip1. As to the kind of experiment: Alamar Blue cell viability assay on RKOp27 cells arrested by Ponasterone A-induced p27Kip1 (cell cycle specific mode of action). It is filed as cell-based. The note with it: Homo sapiens, RKOp27, 72 h, cells arrested by p27Kip1 induced with 10 μM Ponasterone A, 72 hours incubation, read-out: IC50 RKO p27 arrested. The protocol: To determine the cell cycle specific mode of action, subclones of RKO colon adenocarcinoma cells (RKOp27 or RKOp21 as described by Schmidt et al. in Oncogene 19, 2423-2429; 2000) are seeded into 96 well flat bottom plates at a density of 16000 cells per well in a volume of 50 μl per well in DMEM growth medium with 10% FCS containing 10 μM Ponasterone A. 24 hours after seeding 50 μl each of the compound dilutions in DMEM are added into each well of the 96 well plate. Each compound dilution is tested as quadruplicates. Wells containing untreated control cells are filled with 50 μl DMEM containing 1% DMSO. The cells are then incubated with the substances for 72 hours at 37° C. in a humidified atmosphere containing 5% carbon dioxide. To determine the viability of the cells, 10 μl of an Alamar Blue solution (Biosource) are added and the fluorescence is measured at an extinction of 544 nm and an emission of 590 nm. For the calculation of the cell viability the emission value from untreated cells is set as 100% viability and the emission rates of treated cells are set in relation to the values of untreated cells. Viabilities are expressed as % values. Viability is compared of proliferating cells grown in the absence of the inducer Ponasterone A, versus viability of cells arrested by the expression of ectopic p27Kip1 induced by Ponasterone A. The data of this experimental setting are summarized in table A (2nd column).
A general note: The colour change of resazurin is a common sign of viable cells or microbes.

Test [2] concerns RKO (RKOp27) human colon adenocarcinoma cells. Description: Alamar Blue cell viability assay, anti-proliferative/cytotoxic activity on proliferating RKOp27 cells. It is filed as cell-based. The note with it: absence of Ponasterone A, 72 hours incubation, read-out: IC50 RKO p27 proliferating. The protocol: The anti-proliferative/cytotoxic activity of the compounds described herein, can be tested on subclones of RKO (RKOp27) human colon adenocarcinoma cells (Schmidt et al., Oncogene 19, 2423-2429; 2000) using the Alamar Blue cell viability assay (described in O'Brien et al. Eur J Biochem 267, 5421-5426, 2000). The compounds are dissolved as 20 mM solutions in dimethylsulfoxide (DMSO) and subsequently diluted in semi-logarithmic steps. DMSO dilutions are further diluted 1:100 into Dulbecco's modified Eagle's medium (DMEM) containing 10% fetal calf serum to a final concentration twice as much as the final concentration in the test. RKO subclones are seeded into 96 well flat bottom plates at a density of 4000 cells per well in a volume of 50 μl per well. 24 hours after seeding 50 μl each of the compound dilutions in DMEM are added into each well of the 96 well plate. Each compound dilution is tested as quadruplicates. Wells containing untreated control cells are filled with 50 μl DMEM containing 1% DMSO. The cells are then incubated with the substances for 72 hours at 37° C. in a humidified atmosphere containing 5% carbon dioxide. To determine the viability of the cells, 10 μl of an Alamar Blue solution (Biosource) are added and the fluorescence is measured at an extinction of 544 nm and an emission of 590 nm. For the calculation of the cell viability the emission value from untreated cells is set as 100% viability and the emission rates of treated cells are set in relation to the values of untreated cells. Viabilities are expressed as % values.
The corresponding IC50 values of the compounds for anti-proliferative/cytotoxic activity are determined from the concentration-effect curves.
Representative IC50 values for anti-proliferation/cytotoxicity determined in the aforementioned assay are described in the table A (1st column), in which the numbers of the compound correspond to the numbers of the examples.

Consider `N#Cc1c(NC(=O)/C=C/c2ccccc2)sc2c1CCN(C(=O)OCCc1ccccn1)C2` [Example 116, 3-Cyano-2-((E)-3-phenyl-allanoylamino)-4,7-dihydro-5H-thieno[2,3-c]pyridine-6-carboxylic acid 2-pyridin-2-yl-ethyl ester], for which the IC50 (as a rule, the point on the concentration scale where inhibition reaches its midpoint) was ≥ 100 µM in test [1] and ≤ 2 µM in test [2].
Taken in the same sequence, the figures for `CCOc1ccccc1/C=C/C(=O)Nc1sc2c(c1C#N)CCN(C(=O)Cc1cccnc1)C2` [Example 219, (E)-N-[3-Cyano-6-(2-pyridin-3-yl-ethanoyl)-4,5,6,7-tetrahydro-thieno[2,3-c]pyridin-2-yl]-3-(2-ethoxy-phenyl)-acrylamide] were ≥ 100 µM and ≤ 2 µM.
Taken in the same sequence, the figures for `CCOC(=O)N1CCc2c(sc(NC(=O)/C=C/c3ccc(-c4ccccc4)o3)c2C#N)C1` [Example 91, 3-Cyano-2-[(E)-3-(5-phenyl-furan-2-yl)-allanoylamino]-4,7-dihydro-5H-thieno[2,3-c]pyridine-6-carboxylic acid ethyl ester] were ≥ 100 µM and ≤ 2 µM.
Taken in the same sequence, the figures for `CCOC(=O)N1CCc2c(sc(NC(=O)/C=C/c3ccccc3OC(C)=O)c2C#N)C1` [Example 69, 2-[(E)-3-(2-Acetoxy-phenyl)-allanoylamino]-3-cyano-4,7-dihydro-5H-thieno[2,3-c]pyridine-6-carboxylic acid ethyl ester] were ≥ 50 µM and ≤ 0.5 µM.
For `N#Cc1c(NC(=O)/C=C/c2ccccc2)sc2c1CCN(C(=O)Cc1cccnc1)C2` [Example 183, (E)-N-[3-Cyano-6-(2-pyridin-3-yl-ethanoyl)-4,5,6,7-tetrahydro-thieno[2,3-c]pyridin-2-yl]-3-phenyl-acrylamide], the IC50 in test [1] was ≥ 100 µM; in test [2], ≤ 2 µM.
Taken in the same sequence, the figures for `CCOC(=O)N1CCc2c(sc(NC(=O)/C=C/c3ccccc3OC)c2C#N)C1` [Example 24, 3-Cyano-2-[(E)-3-(2-methoxy-phenyl)-allanoylamino]-4,7-dihydro-5H-thieno[2,3-c]pyridine-6-carboxylic acid ethyl ester] were > 100 µM and ≤ 2 µM.
Taken in the same sequence, the figures for `CCOc1ccccc1/C=C/C(=O)Nc1sc2c(c1C#N)CCN(C(=O)CCc1ccccn1)C2` [Example 222, (E)-N-[3-Cyano-6-(3-pyridin-2-yl-propanoyl)-4,5,6,7-tetrahydro-thieno[2,3-c]pyridin-2-yl]-3-(2-ethoxy-phenyl)-acrylamide] were ≥ 50 µM and ≤ 0.5 µM.
Take `COCCOCC(=O)N1CCc2c(sc(NC(=O)/C=C/c3ccccc3)c2C#N)C1` [Example 175, (E)-N-{3-Cyano-6-[2-(2-methoxy-ethoxy)-ethanoyl]-4,5,6,7-tetrahydro-thieno[2,3-c]pyridin-2-yl}-3-phenyl-acrylamide]: the IC50 in test [1] is ≥ 100 µM; in test [2], ≤ 2 µM.
On to `N#Cc1c(NC(=O)/C=C/c2cccnc2)sc2c1CCN(C(=O)OCc1ccccc1)C2` [Example 144, 3-Cyano-2-((E)-3-pyridin-3-yl-allanoylamino)-4,7-dihydro-5H-thieno[2,3-c]pyridine-6-carboxylic acid benzyl ester], for which the values for the IC50 in test [1] and in test [2] were ≥ 100 µM and ≤ 2 µM, respectively.
In the case of `CCOC(=O)N1CCc2c(sc(NC(=O)/C=C/c3cccc(Cl)c3)c2C#N)C1` [Example 13, 2-[(E)-3-(3-Chloro-phenyl)-allanoylamino]-3-cyano-4,7-dihydro-5H-thieno[2,3-c]pyridine-6-carboxylic acid ethyl ester], the IC50 in test [1] is > 100 µM; in test [2] it was ≤ 2 µM.
Taken in the same sequence, the figures for `CCOC(=O)N1CCc2c(sc(NC(=O)/C=C/c3ccc(CC)o3)c2C#N)C1` [Example 77, 3-Cyano-2-[(E)-3-(5-ethyl-furan-2-yl)-allanoylamino]-4,7-dihydro-5H-thieno[2,3-c]pyridine-6-carboxylic acid ethyl ester] were ≥ 50 µM and ≤ 0.5 µM.
For `CC(=O)OCC(=O)N1CCc2c(sc(NC(=O)/C=C/c3ccccc3)c2C#N)C1` [Example 189, Acetic acid 2-[3-cyano-2-((E)-3-phenyl-allanoylamino)-4,7-dihydro-5H-thieno[2,3-c]pyridin-6-yl]-2-oxo-ethyl ester], the figures for the half-inhibitory concentration (IC50) in test [1] and in test [2] were ≥ 100 µM and ≤ 2 µM, respectively.
As to `CCOC(=O)N1CCc2c(sc(NC(=O)/C=C/c3ccccc3Oc3ccccc3)c2C#N)C1` [Example 104, 3-Cyano-2-[(E)-3-(2-phenoxy-phenyl)-allanoylamino]-4,7-dihydro-5H-thieno[2,3-c]pyridine-6-carboxylic acid ethyl ester], the figures for the IC50 in test [1] and in test [2] were ≥ 100 µM and ≤ 2 µM, respectively.
Taken in the same sequence, the figures for `CCOC(=O)N1CCc2c(sc(NC(=O)/C=C/c3ccccc3CC)c2C#N)C1` [Example 82, 3-Cyano-2-[(E)-3-(2-ethyl-phenyl)-allanoylamino]-4,7-dihydro-5H-thieno[2,3-c]pyridine-6-carboxylic acid ethyl ester] were ≥ 100 µM and ≤ 2 µM.
Take `CCOC(=O)N1CCc2c(sc(NC(=O)/C=C/c3cccc(OC)c3OCC)c2C#N)C1` [Example 96, 3-Cyano-2-[(E)-3-(2-ethoxy-3-methoxy-phenyl)-allanoylamino]-4,7-dihydro-5H-thieno[2,3-c]pyridine-6-carboxylic acid ethyl ester]: the IC50 in test [1] is ≥ 100 µM; in test [2], ≤ 2 µM.
Taken in the same sequence, the figures for `CCCOC(=O)N1CCc2c(sc(NC(=O)/C=C/c3cccnc3)c2C#N)C1` [Example 145, 3-Cyano-2-((E)-3-pyridin-3-yl-allanoylamino)-4,7-dihydro-5H-thieno[2,3-c]pyridine-6-carboxylic acid propyl ester] were ≥ 50 µM and ≤ 0.5 µM.
In the case of `CCOc1ccccc1/C=C/C(=O)Nc1sc2c(c1C#N)CCN(C(=O)CCn1ccnc1)C2` [Example 224, (E)-N-[3-Cyano-6-(3-imidazol-1-yl-propanoyl)-4,5,6,7-tetrahydro-thieno[2,3-c]pyridin-2-yl]-3-(2-ethoxy-phenyl)-acrylamide], the IC50 in test [1] is ≥ 100 µM; in test [2] it was ≤ 2 µM.
Taken in the same sequence, the figures for `N#Cc1c(NC(=O)/C=C/c2cccnc2)sc2c1CCN(C(=O)Cc1ccccn1)C2` [Example 196, (E)-N-[3-Cyano-6-(2-pyridin-2-yl-ethanoyl)-4,5,6,7-tetrahydro-thieno[2,3-c]pyridin-2-yl]-3-pyridin-3-yl-acrylamide] were ≥ 100 µM and ≤ 2 µM.
With `CCOC(=O)N1CCc2c(sc(NC(=O)/C=C/c3cccc4c3OC(F)(F)O4)c2C#N)C1` [Example 230, 3-Cyano-2-[(E)-3-(2,2-difluoro-benzo[1,3]dioxol-4-yl)-allanoylamino]-4,7-dihydro-5H-thieno[2,3-c]pyridine-6-carboxylic acid ethyl ester], the IC50 is ≥ 100 µM in test [1] and ≤ 2 µM in test [2].
Taken in the same sequence, the figures for `CCOC(=O)N1CCc2c(sc(NC(=O)/C=C/c3cccc(F)c3C)c2C#N)C1` [Example 80, 3-Cyano-2-[(E)-3-(3-fluoro-2-methyl-phenyl)-allanoylamino]-4,7-dihydro-5H-thieno[2,3-c]pyridine-6-carboxylic acid ethyl ester] were ≥ 100 µM and ≤ 2 µM.
As for `CCOC(=O)N1CCc2c(sc(NC(=O)/C=C/c3ccccc3OC(C)C)c2C#N)C1` [Example 98, 3-Cyano-2-[(E)-3-(2-isopropoxy-phenyl)-allanoylamino]-4,7-dihydro-5H-thieno[2,3-c]pyridine-6-carboxylic acid ethyl ester], the IC50 in test [1] was ≥ 100 µM; in test [2], ≤ 2 µM.
Taken in the same sequence, the figures for `CCOc1ccccc1/C=C/C(=O)Nc1sc2c(c1C#N)CCN(C(=O)OCc1ccccn1)C2` [Example 236, 3-Cyano-2-[(E)-3-(2-ethoxy-phenyl)-allanoylamino]-4,7-dihydro-5H-thieno[2,3-c]pyridin-6-carboxylic acid pyridin-2-ylmethyl ester] were ≥ 100 µM and ≤ 2 µM.
